Measurements published in patent US12571052B2, “Immunomodulatory RNA” (THE TRUSTEES OF THE UNIVERSITY OF PENNSYLVANIA, priority 2017, dated 2026).

Tests used:
[1] = system: 1833 ISG-R breast cancer xenografts; experiment: Intratumoral injection into subcutaneous 1833 xenografts; assay type: in vivo, athymic nude mice
Description: In Vivo Mouse Studies. For exosome injection studies, 1×10^6 1833 breast cancer cells were injected with Matrigel (Corning) into the flanks of 6-8 week old athymic nude mice and 10 μg of mono- or co-culture exosomes were directly injected into the tumors 3 times a week. For RNA injection studies, 50 ng of 7SL or GAPDH300 RNA encapsulated into RNAiMax liposomes were directly injected into the tumors 3 times a week. Subcutaneous tumor growth was measured by caliper. For lung colonization studies, 2×10^5 luciferase-labeled 4175 breast cancer cells were injected in the tail vein. Injections were confirmed by immediate imaging using a Xenogen IVIS 100 system. Serum was isolated from mice by cardiac puncture.

B16-F10 tumor cells [2] = experiment: B16-F10/MEF co-implantation, tumor immune populations by flow cytometry; assay type: in vivo, C57BL/6 mice; settings: for myeloid infiltration (macrophages, MDSCs) into the tumor microenvironment: tumors harvested 13 days later
Description: Mice were implanted with tumors as described FIGS. 25A-25B. Tumors were harvested 13 days later and assessed for infiltration of macrophages or myeloid derived suppressor cells (MDSCs). Macrophages are considered Lin−, F4/80+, and CD11b+ cells. MDSCs are considered Lin−, F4/80−, CD11c−, CD11b+, and Ly6C+ cells. Tumors were treated with anti-CTLA4 blocking antibody (FIG. 26D) as described in FIGS. 25A and 25B, and tumors were harvested at d15 to measure M2 polarization of macrophages as marked by CD206.
Furthermore, mice were implanted with the same tumors and subsequently treated with the CSF1R inhibitor BLZ945. Polarization of macrophages and frequency of CD103+DCs were tested.
In addition, mice were implanted with tumors and treated with anti-CTLA4+/−CSF1Ri BLZ945. Tumors were harvested 13 days later and immune populations were assessed using an unbiased clustering of flow cytometry data.
Mice were implanted with B16-F10 tumor cells mixed 1:1 with MEFs or MEFs co-expressing SRP9/14 (FIG. 35B). Tumors were harvested 2 weeks post-injection and analyzed for immune cell populations. Unshielded RN7SL1 increased the frequency of dendritic cells, the percentage of CD103+ dendritic cells, the percentage of CD69+CD8+ T cells, and the percentage of PD1+CD8+ T cells in tumors (FIG. 35C). […] Without wishing to be bound by theory, a CSF1R inhibitor blocks M2 polarization and may synergize with unshielded RN7SL1.

B16-F10 tumor cells [3] = experiment: B16-F10/MEF co-implantation, tumor growth and survival under checkpoint blockade; assay type: in vivo, C57BL/6 mice; settings: MYC activated MEFs vs MEFs co-expressing SRP9/14; anti-CTLA-4 or anti-PD-1
Description: Wild type (WT) C57BL/6 mice were injected with 5×10^4 B16-F10 tumor cells subcutaneously in the flank with 5×10^4 MYC activated mouse embryonic fibroblasts (MEFs) or MYC activated MEFs co-expressing SRP9/14. MYC activation is inducible with 4-OHT and results in the secretion of exosomes containing unshielded 7SL1 RNA, while co-expression of SRP9/14 ensures the 7SL1 RNA remains relatively shielded, allowing measurement of the stimulatory capacity specifically of the unshielded form (Nabet B Y, et al. Cell. 2017; 170 (2): 352-366.e13). Mice were subsequently treated with the anti-CTLA-4 or anti-PD-1 antibody (or not), and then tumor growth was monitored by caliper. Endpoint criterion was considered a tumor measurement of 1.5 cm in any direction.
Tumors were implanted as described in FIGS. 25A-25B and treated with CSF1R inhibitor BLZ945 (Novartis) every 2 days for 2 weeks starting at day 0 to prevent M2 polarization of infiltrating myeloid cells. Mice were additionally treated with anti-CTLA4 (FIG. 27A) or anti-CTLA4 and anti-PD1 (FIGS. 27B and 27C) on days 5, 8, and 11. Tumor growth was monitored by caliper.

[4] = tumors harvested 2 weeks post-injection

Question: Which tumor growth ([1]; 50 ng liposome-encapsulated RNA intratumorally 3 times a week, RIG-I WT tumors) does the source give for “RN7SL1: Human RN7SL1 (7SL, srpRNA) RNA, 5'ppp, in vitro transcribed or secreted unshielded in exosomes; SEQ ID NO: 2” here?
Answer: enhance tumor growth in a RIG-I-dependent manner

Question: And the tumor growth ([1]; 50 ng liposome-encapsulated RNA intratumorally, RIG-I KO tumors)?
Answer: no effect was observed

Question: And the “ISG expression in tumors” value ([1]; tumors expressing WT RIG-I, human specific primers)?
Answer: an increase in ISG expression

Question: And the T cell activation (B16-F10 tumor cells [2]; dependent on MyD88)?
Answer: enhanced T cell activation

Question: What about the “percentage of CD69+CD8+ T cells” value (B16-F10 tumor cells [2]; [4]) of the same substance?
Answer: increased

Question: And the “percentage of CD103+ dendritic cells” value (B16-F10 tumor cells [2]; [4])?
Answer: increased

Question: What about the “percentage of PD1+CD8+ T cells” value (B16-F10 tumor cells [2]; [4]) of the same substance?
Answer: increased

Question: And the “percentages of macrophages and MDSCs in CD45+ cells” value (B16-F10 tumor cells [2]; [4])?
Answer: also increased

Question: What about the “frequency of dendritic cells in tumors” value (B16-F10 tumor cells [2]; tumors harvested 2 weeks post-injection, listed as Unshielded RN7SL1) of the same substance?
Answer: increased

Question: What about the “frequency of dendritic cells in tumors” value (B16-F10 tumor cells [2]; tumors harvested 2 weeks post-injection, listed as unshielded 7SL1) of the same substance?
Answer: increased the frequency of DCs in vivo

Question: And the “myeloid infiltration (macrophages, MDSCs) into the tumor microenvironment” value (B16-F10 tumor cells [2])?
Answer: triggered the infiltration of macrophages and MDSCs into the tumor microenvironment

Question: What about the “myeloid infiltration (macrophages, MDSCs) into the tumor microenvironment” value (B16-F10 tumor cells [2]; listed as unshielded 7SL) of the same substance?
Answer: drives myeloid infiltration into the tumor microenvironment

Question: What about the “response to checkpoint blockade therapy” value (B16-F10 tumor cells [3]) of the same substance?
Answer: does not significantly impact response to anti-CTLA-4 or anti-PD-1 therapy
